{
  "source": "patent US12343427B1",
  "about": "“Stable intravenous diltiazem hydrochloride formulation and use thereof” (Nivagen Pharmaceuticals, Inc., priority 2024, dated 2025)",
  "origin": "cited, not measured here",
  "biological_target": "CYP2D6 (Homo sapiens, UniProt P10635)",
  "sequence (P10635 whole entry)": "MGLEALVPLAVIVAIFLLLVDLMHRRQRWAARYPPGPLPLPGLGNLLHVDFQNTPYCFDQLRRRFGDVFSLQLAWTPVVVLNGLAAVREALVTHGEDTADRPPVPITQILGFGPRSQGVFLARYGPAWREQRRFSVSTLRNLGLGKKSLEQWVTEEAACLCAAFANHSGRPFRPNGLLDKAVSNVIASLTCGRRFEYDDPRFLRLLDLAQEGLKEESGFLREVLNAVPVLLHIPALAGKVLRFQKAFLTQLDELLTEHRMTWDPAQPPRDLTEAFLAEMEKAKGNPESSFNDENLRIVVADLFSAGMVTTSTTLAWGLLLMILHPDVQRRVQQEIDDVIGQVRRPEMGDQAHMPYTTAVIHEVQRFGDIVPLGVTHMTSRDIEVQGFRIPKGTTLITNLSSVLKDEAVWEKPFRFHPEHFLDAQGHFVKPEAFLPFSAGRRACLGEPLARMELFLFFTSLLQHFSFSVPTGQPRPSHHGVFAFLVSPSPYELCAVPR",
  "conditions": "Molden E, et al. Drug Metab Dispos. 30: 1-3 (2002)",
  "data": [
    {"smiles": "COc1ccc([C@@H]2Sc3ccccc3N(CCN(C)C)C(=O)[C@@H]2O)cc1", "note": "[Desacetyl-diltiazem]", "values": [
      {"measurement": "affinity to CYP2D6 compared with CYP3A4", "value": "severalfold higher affinity to CYP2D6 compared with CYP3A4"}
    ]}
  ]
}
